Assay results published in paper PMC9675574 (JCI Insight, 2022).

System: cerulein-induced pancreatitis in T7K24R mice
Assay: Cerulein-induced pancreatitis in T7K24R mice
Format: in vivo, mouse
Settings: single oral gavage 200 mg/kg; 15 treated mice
Protocol: Pancreatitis was induced in T7K24R mice with 8 hourly intraperitoneal injections of the secretagogue peptide cerulein used in a dose of 50 μg/kg. Cerulein (catalog number C9026, MilliporeSigma) was dissolved in sterile normal saline at 10 μg/mL concentration. Mice were sacrificed 1, 24, 48, 72, or 96 hours from the first cerulein injection, as indicated, and the pancreas and blood were harvested. Details of histological analysis and measurement of plasma amylase (4 μL assayed) were reported previously ([29]–[31]).
Control mice were given gavage of the vehicle solution (Captisol; see below) or regular chow.
Captisol (β-cyclodextrin sulfobutyl ethers, sodium salts, lot number NC-04A-180185) was obtained from Cydex Pharmaceuticals (through Thermo Fisher Scientific) and was dissolved in sterile normal saline (3.5 g in 10 mL). […] The mixture was then compressed into pellets using the barrel of a 10 mL plastic syringe and a plunger. The prodrug-containing pellets were allowed to dry at 24°C for 2 days and stored at 4°C until use.

## [H]/N=C(/N)c1ccc(NCc2nc3cc(C(=O)N(CCC(=O)O)c4ccccn4)ccc3n2C)cc1 [dabigatran]
  share of mice with limited efficacy (less than 25% of normal acini preserved): 30%
